# Measurements reported in ChEMBL document CHEMBL1201862, “PubChem BioAssay data set” (2004).
#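 Grown in 96-well plates, cells were treated for 48 hours with each compound at five concentrations. Insufficient inhibition: endpoint recorded as highest concentration tested. GI50 is the concentration that inhibits growth by half.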 Calls of active or inactive are those of the source. Cut-off read from the data, not from the text of the source: active = GI50 up to about 1.1 µM and inactive = higher.
# Legend:
# Experiment in all cases: growth of human tumour cells (NCI), 48 h
# 786-0 = test system: 786-0
# A498 = test system: A498
# A549 = test system: A549
# ACHN = test system: ACHN
# CAKI-1 = test system: CAKI-1
# COLO 205 = test system: COLO 205
# DLD-1 = test system: DLD-1
# DMS-114 = test system: DMS-114
# DMS-273 = test system: DMS-273
# EKVX = test system: EKVX
# HCC 2998 = test system: HCC 2998
# HCT-15 = test system: HCT-15
# HL-60 = test system: HL-60
# HOP-18 = test system: HOP-18
# HOP-62 = test system: HOP-62
# HOP-92 = test system: HOP-92
# HT-29 = test system: HT-29
# IGROV-1 = test system: IGROV-1
# K562 = test system: K562
# KM-20L2 = test system: KM-20L2
# KM12 = test system: KM12
# LOX IMVI = test system: LOX IMVI
# LXFL 529 = test system: LXFL 529
# M14 = test system: M14
# M19-MEL = test system: M19-MEL
# MOLT-4 = test system: MOLT-4
# Malme-3M = test system: Malme-3M
# NCI-H226 = test system: NCI-H226
# NCI-H23 = test system: NCI-H23
# NCI-H460 = test system: NCI-H460
# NCI-H522 = test system: NCI-H522
# OVCAR-3 = test system: OVCAR-3
# OVCAR-4 = test system: OVCAR-4
# OVCAR-5 = test system: OVCAR-5
# OVCAR-8 = test system: OVCAR-8
# RPMI-8226 = test system: RPMI-8226
# RXF 631 = test system: RXF 631
# SF-268 = test system: SF-268
# SF-295 = test system: SF-295
# SF-539 = test system: SF-539
# SK-MEL-28 = test system: SK-MEL-28
# SK-MEL-2 = test system: SK-MEL-2
# SK-MEL-5 = test system: SK-MEL-5
# SK-OV-3 = test system: SK-OV-3
# SN12C = test system: SN12C
# SNB-19 = test system: SNB-19
# SNB-75 = test system: SNB-75
# SNB-78 = test system: SNB-78
# SW-620 = test system: SW-620
# TK-10 = test system: TK-10
# U-251 = test system: U-251
# UACC-257 = test system: UACC-257
# UACC-62 = test system: UACC-62
# UO-31 = test system: UO-31
# CCRF-CEM = test system: CCRF-CEM
# HCT-116 = test system: HCT-116
# SR = test system: SR
compound,measurement,setting,value
Cc1cc2c(cc1C)[n+]([O-])c(-c1c(Cl)cccc1Cl)c(N)[n+]2[O-],GI50,786-0,52 µM (inactive)
same,GI50,A498,26.2 µM (inactive)
same,GI50,A549,30.1 µM (inactive)
same,GI50,ACHN,36.5 µM (inactive)
same,GI50,CAKI-1,31 µM (inactive)
same,GI50,COLO 205,18.7 µM (inactive)
same,GI50,DLD-1,30.7 µM (inactive)
same,GI50,DMS-114,22.6 µM (inactive)
same,GI50,DMS-273,32.1 µM (inactive)
same,GI50,EKVX,46.3 µM (inactive)
same,GI50,HCC 2998,25.8 µM (inactive)
same,GI50,HCT-15,28.4 µM
same,GI50,HL-60,26 µM (inactive)
same,GI50,HOP-18,18.9 µM (inactive)
same,GI50,HOP-62,30.5 µM (inactive)
same,GI50,HOP-92,> 100 µM (inactive)
same,GI50,HT-29,39.6 µM (inactive)
same,GI50,IGROV-1,41.3 µM (inactive)
same,GI50,K562,32 µM (inactive)
same,GI50,KM-20L2,40 µM (inactive)
same,GI50,KM12,37.2 µM (inactive)
same,GI50,LOX IMVI,44.7 µM (inactive)
same,GI50,LXFL 529,31.6 µM (inactive)
same,GI50,M14,33 µM (inactive)
same,GI50,M19-MEL,34.9 µM (inactive)
same,GI50,MOLT-4,26.2 µM (inactive)
same,GI50,Malme-3M,31.1 µM (inactive)
same,GI50,NCI-H226,23.9 µM (inactive)
same,GI50,NCI-H23,24.1 µM (inactive)
same,GI50,NCI-H460,30.3 µM (inactive)
same,GI50,NCI-H522,9.27 µM (inactive)
same,GI50,OVCAR-3,28.2 µM (inactive)
same,GI50,OVCAR-4,39 µM (inactive)
same,GI50,OVCAR-5,> 100 µM (inactive)
same,GI50,OVCAR-8,38.8 µM (inactive)
same,GI50,RPMI-8226,67.5 µM (inactive)
same,GI50,RXF 631,18.2 µM (inactive)
same,GI50,SF-268,32.9 µM (inactive)
same,GI50,SF-295,42.5 µM (inactive)
same,GI50,SF-539,27.9 µM (inactive)
same,GI50,SK-MEL-28,28.2 µM (inactive)
same,GI50,SK-MEL-2,31.6 µM (inactive)
same,GI50,SK-MEL-5,20.7 µM (inactive)
same,GI50,SK-OV-3,66.4 µM (inactive)
same,GI50,SN12C,50.9 µM (inactive)
same,GI50,SNB-19,25.5 µM (inactive)
same,GI50,SNB-75,> 100 µM (inactive)
same,GI50,SNB-78,43.9 µM (inactive)
same,GI50,SW-620,35.1 µM (inactive)
same,GI50,TK-10,> 100 µM (inactive)
same,GI50,U-251,33.3 µM (inactive)
same,GI50,UACC-257,24.6 µM (inactive)
same,GI50,UACC-62,23.2 µM (inactive)
same,GI50,UO-31,30.3 µM (inactive)
CCOc1ccccc1N1C(=O)C(=O)C(c2nc3ccccc3o2)C(=O)C1=O,GI50,786-0,21.2 µM (inactive)
same,GI50,A498,48.6 µM (inactive)
same,GI50,A549,48.6 µM (inactive)
same,GI50,ACHN,28.3 µM (inactive)
same,GI50,CAKI-1,66.8 µM (inactive)
same,GI50,CCRF-CEM,> 100 µM (inactive)
same,GI50,COLO 205,> 100 µM (inactive)
same,GI50,DLD-1,> 100 µM (inactive)
same,GI50,DMS-114,> 100 µM (inactive)
same,GI50,DMS-273,> 100 µM (inactive)
same,GI50,EKVX,71.9 µM (inactive)
same,GI50,HCC 2998,> 100 µM (inactive)
same,GI50,HCT-116,70.5 µM (inactive)
same,GI50,HCT-15,> 100 µM
same,GI50,HL-60,> 100 µM (inactive)
same,GI50,HOP-18,28.7 µM (inactive)
same,GI50,HOP-62,> 100 µM (inactive)
same,GI50,HOP-92,> 100 µM (inactive)
same,GI50,HT-29,> 100 µM (inactive)
same,GI50,IGROV-1,> 100 µM (inactive)
same,GI50,K562,> 100 µM (inactive)
same,GI50,KM-20L2,> 100 µM (inactive)
same,GI50,LOX IMVI,> 100 µM (inactive)
same,GI50,LXFL 529,> 100 µM (inactive)
same,GI50,M14,> 100 µM (inactive)
same,GI50,M19-MEL,> 100 µM (inactive)
same,GI50,MOLT-4,> 100 µM (inactive)
same,GI50,Malme-3M,> 100 µM (inactive)
same,GI50,NCI-H226,> 100 µM (inactive)
same,GI50,NCI-H23,> 100 µM (inactive)
same,GI50,NCI-H522,> 100 µM (inactive)
same,GI50,OVCAR-3,> 100 µM (inactive)
same,GI50,OVCAR-4,15.7 µM (inactive)
same,GI50,OVCAR-5,> 100 µM (inactive)
same,GI50,OVCAR-8,70.5 µM (inactive)
same,GI50,RPMI-8226,> 100 µM (inactive)
same,GI50,RXF 631,> 100 µM (inactive)
same,GI50,SF-268,> 100 µM (inactive)
same,GI50,SF-295,20.8 µM (inactive)
same,GI50,SF-539,> 100 µM (inactive)
same,GI50,SK-MEL-28,> 100 µM (inactive)
same,GI50,SK-MEL-2,> 100 µM (inactive)
same,GI50,SK-MEL-5,> 100 µM (inactive)
same,GI50,SK-OV-3,28.6 µM (inactive)
same,GI50,SN12C,93.8 µM (inactive)
same,GI50,SNB-19,> 100 µM (inactive)
same,GI50,SNB-75,42.6 µM (inactive)
same,GI50,SNB-78,> 100 µM (inactive)
same,GI50,SR,> 100 µM (inactive)
same,GI50,SW-620,> 100 µM (inactive)
same,GI50,TK-10,39.7 µM (inactive)
same,GI50,U-251,> 100 µM (inactive)
same,GI50,UACC-257,> 100 µM (inactive)
same,GI50,UACC-62,> 100 µM (inactive)
same,GI50,UO-31,61.5 µM (inactive)
